Laboratory results reported in patent publication US11479536B1 (King Abdulaziz University, priority 2022, dated 2022).

Experiments:
MCF7 spheroids = assay: Live and dead assay of tumor spheroids, MCF7; type: cell-based, human; details: 48 h post treatment, control 10.33±2.40%
Method: The Live/Dead assay contains a mixture of two staining fluorescent dyes that label live and dead cells to enable differentiation between them. The cell viability of the cells in response to the treatment with MAK compounds was examined. The cells were grown for 48 hours and treated with MAK compound for additional 48 hours, then Cytox RED solution reagent was added. After incubation at 37° C. under 5% CO2 for 1 hour, the samples were immediately analyzed by flow cytometry. Mean values and standard deviation of replicates were calculated in comparison to the control group.

[1] = Stability in mouse liver microsomes; type: in vitro ADME
Method: Both mouse and human liver microsomes were obtained from Merck KGaA, (Darmstadt, Germany), Cat. No. M9441 (Mouse liver microsomes) and M0317 (Human liver microsomes). Assays were conducted in triplicate in 96-deep well polypropylene plates. […] At five time points, reaction mixture aliquots were transferred to 96-shallow well stop plates on ice containing acetonitrile with 0.1 μM propafenone. […] Standard curves for test compound were generated using 5 concentrations in triplicate that were processed as above but with zero incubation time. Stop plates were centrifuged at 2000 g for 10 min and then supernatant aliquots were transferred to a Waters Aquity® UPLC 700 μL 96-well sample plate with cap mat (Waters, Milford, Mass.). The amount of compound remaining in the supernatant was quantified by LC/MS/MS using a Waters Xevo TQ MS (electrospray positive mode) coupled to a Waters Aquity® UPLC (BEH column, C18). Propafenone was used as the internal standard. GraphPad® Prism v 5.04 was used for nonlinear fitting of time course data to generate t1/2 values.

CYP2D6 = target: T1, CYP2D6 (Homo sapiens, UniProt P10635); assay: Inhibition assay of human CYP450 enzymes, 2D6; type: in vitro ADME
T1 construct: purchased Fisher Scientific; host or cells: insect supersomes
Method: The two compounds MAK-1 and MAK-6 were assessed for its ability to inhibit the three major human CYP450 enzymes, 3A4, 2D6 and 2C9. Assays were run in triplicate. Expressed enzymes in insect supersomes (Fisher Scientific, Waltham, Mass.) were used to minimize non-specific binding and membrane partitioning issues (McMasters et al., 2007). The 3A4 assay uses testosterone as a substrate and analysis was performed by LC/MS/MS on a Waters Xevo TQ instrument as described above using positive electrospray ionization. Assay acceptance criteria was 20% for all standards and 25% for the LLOQ. The 2D6 and 2C9 assays use fluorescent substrates (3-[2-(N,N-diethylamino)ethyl]-7-methoxy-4-methylcoumarin for 2D6; 7-methoxy-4-(trifluoromethyl)coumarin for 2C9) and were analyzed on an Envision plate reader. GraphPad® Prism v 5.04 was used for nonlinear fitting of data to generate IC50 values.

[2] = Stability in mouse plasma; type: in vitro ADME; details: 37° C., duration of the assay (5 h)
Method: The assay is conducted at 37° C. in triplicate. Test compounds or procaine (positive control) are tested at a final concentration of 1 μM in either 2.5% DMSO/CD-1 mouse plasma (Innovative Research, Novi, Mich.; sodium heparin added as anticoagulant; pH adjusted to 7.4 with 2N HCl on day of use) or 2.5% DMSO/PBS (pH 7.4: 136.9 mM NaCl, 2.68 mM KCl, 8.1 mM Na2HPO4, 1.47 mM KH2PO4, 0.9 mM CaCl2, 0.49 mM MgCl2). At seven time points, reaction mixture aliquots were transferred to 96-shallow well stop plates on ice containing acetonitrile with 0.1 μM propafenone. Samples were analyzed by LC/MS/MS on a Waters Xevo TQ instrument as described above using positive electrospray ionization. Assay acceptance criteria was 20% for all standards and 25% for the LLOQ. GraphPad® Prism v. 5.04 was used for nonlinear fitting of data to generate t1/2 values.

[3] = Stability in human liver microsomes; type: in vitro ADME
Method: Both mouse and human liver microsomes were obtained from Merck KGaA, (Darmstadt, Germany), Cat. No. M9441 (Mouse liver microsomes) and M0317 (Human liver microsomes). Assays were conducted in triplicate in 96-deep well polypropylene plates. The compounds were incubated with pooled liver microsomes from male CD-1 mice (Life Technologies, Grand Island, N.Y.), tetra-sodium NADPH and magnesium chloride for 60 min at 37° C. with gentle shaking. At five time points, reaction mixture aliquots were transferred to 96-shallow well stop plates on ice containing acetonitrile with 0.1 μM propafenone. […] Standard curves for test compound were generated using 5 concentrations in triplicate that were processed as above but with zero incubation time. Stop plates were centrifuged at 2000 g for 10 min and then supernatant aliquots were transferred to a Waters Aquity® UPLC 700 μL 96-well sample plate with cap mat (Waters, Milford, Mass.). The amount of compound remaining in the supernatant was quantified by LC/MS/MS using a Waters Xevo TQ MS (electrospray positive mode) coupled to a Waters Aquity® UPLC (BEH column, C18). Propafenone was used as the internal standard. GraphPad® Prism v 5.04 was used for nonlinear fitting of time course data to generate t1/2 values.

T47D cell line = assay: Cytotoxic assay (MTT) in monolayer model, T47D; type: cell-based; details: Homo sapiens, 48 h, read-out: IC50 cytotoxic assay against T47D, monolayer
Method: 1×10^6 cells of the human breast cancer cell lines MCF7 and T47D were seeded and grown at 37° C. with 5% CO2, in a Dulbecco's Modified Eagle Medium (DMEM) with 10% fetal bovine serum (Sigma). The cells were maintained until they reached the confluence over 90%. Then, the cells were subjected to the different treatment conditions before performing the assays.
The cytotoxic effects of MAK compounds were assessed against MCF7 and T47D cell lines using MTT cell viability assay. The cells were treated for 48 hours with different concentrations of each MAK compound and the control cells were subjected to the vehicle (0.1% DMSO). Then, 10% of 5 mg/mL MTT was added to each well containing treated or control cells, and mixture was incubated at 37° C. for 3 hours. After that, the MTT-containing media was replaced with 100 μL DMSO and incubated for 10 minutes at room temperature before measuring the absorbance for each well at 570 nm. According to the measured absorbance, the IC50 was calculated for each compound. All the experiments were performed in biological and experimental replicates.

T1 sequence (P10635 whole entry): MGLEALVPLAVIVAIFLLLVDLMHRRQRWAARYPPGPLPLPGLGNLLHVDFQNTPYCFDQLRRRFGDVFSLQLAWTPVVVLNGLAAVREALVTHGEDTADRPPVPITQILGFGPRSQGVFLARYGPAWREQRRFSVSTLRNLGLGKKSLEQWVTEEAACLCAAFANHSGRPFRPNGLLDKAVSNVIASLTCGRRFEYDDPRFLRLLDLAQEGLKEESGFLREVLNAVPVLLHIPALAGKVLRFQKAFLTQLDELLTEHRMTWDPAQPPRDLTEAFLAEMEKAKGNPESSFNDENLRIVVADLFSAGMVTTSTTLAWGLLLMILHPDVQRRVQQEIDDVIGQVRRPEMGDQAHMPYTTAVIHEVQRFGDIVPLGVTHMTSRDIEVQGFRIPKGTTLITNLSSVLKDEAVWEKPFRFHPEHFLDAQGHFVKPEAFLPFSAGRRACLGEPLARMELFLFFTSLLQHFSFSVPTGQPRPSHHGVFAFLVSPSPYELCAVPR

COc1cccc(C(=O)Nc2ccc(CC(=O)NCc3ccccc3)cc2)c1 [MAK-1, N-(4-(2-(benzylamino)-2-oxoethyl)phenyl)-3-methoxybenzamide]
dead rate (dead cells), mean±SEM (MCF7 spheroids): 36.33±0.88%
loss of compound in mouse liver microsomes ([1]; lacking NADPH): non-significant loss
half-life ([1]; male, CD-1, mouse, pooled liver microsomes, in the presence of NADPH, 37° C., read-out: stability to oxidative metabolism in mouse liver microsomes (t1/2)): 35 min
inhibition of CYP2D6 (CYP2D6; concentrations up to 10 μM): no inhibition
stability in mouse plasma [2]: stable
half-life ([3]; human, liver microsomes, in the presence of NADPH, 37° C., read-out: stability to oxidative metabolism in human liver microsomes (t1/2)): 35 min
stability in human liver microsomes ([3]; lacking (in absence of) NADPH): a trend that was not repeated

O=C(Cc1ccc(NC(=O)c2cccc(Cl)c2)cn1)NCc1ccccc1 [MAK-6, N-(6-(2-(benzylamino)-2-oxoethyl)pyridin-3-yl)-3-chlorobenzamide]
dead rate (dead cells), mean±SEM (MCF7 spheroids): 34.27±0.49%
inhibition of CYP2D6 (CYP2D6; concentration not given): did not display any inhibitory activity
IC50 (T47D cell line): 1.2 nM
stability in human liver microsomes ([3]; in presence of NADPH, result in words): highly stable
stability in human liver microsomes ([3]; lacking (in absence of) NADPH): highly stable
